Values of other authors as cited in patent US20120289568A1, “COMBINATIONS OF OXYBUTYNIN AND SALIVARY STIMULANTS FOR THE TREATMENT OF OVERACTIVE BLADDER” (THERAVIDA, INC., priority 2011, published 2012).

Settings: 5 mg of pilocarpine

Structure (SMILES): CC[C@@H]1C(=O)OC[C@@H]1Cc1cncn1C [pilocarpine]
- time of maximum saliva output after administration: about 30 minutes
